Laboratory results published in patent US20060074131A1, “Novel crystalline polymorph of venlafaxine hydrochloride and methods for the preparation thereof” (Wyeth, priority 2001, published 2006).
Where a name gives a salt, the structure may show the parent alone.

Tests used:
[1] = Intrinsic dissolution rate (USP 23 section 711, apparatus 2, compressed pellets in water); format: physicochemical; conditions: 900 mL water, 37° C., 100 rpm, pellet with exposed surface area 0.5 cm^2, UV 220 nm
Description: The intrinsic dissolution rates of Form II and the crystalline polymorph of the present invention were determined as follows. Pellets of venlafaxine hydrochloride were prepared by compressing 100 mg of each material in a die (Wood's apparatus) at 1000 psi for 1 minute with a Carver press. […] The dissolution rate in 900 mL of water was determined by USP 23 (1995), section 711, page 1791 (Dissolution, apparatus 2), with a rotation speed of 100 rpm at 37° C. The dissolution media was circulated through a 1.0 cm path microflow cell at a flow rate of 10 mL/minute. Ultraviolet absorbance was recorded at 220 nm.

[2] = Thermogravimetric analysis (TGA); format: physicochemical; conditions: heated from 28 to 238° C. at 10° C./minute under nitrogen purge
Description: A sample of the venlafaxine hydrochloride crystalline polymorph of the present invention was heated from 28 to 238° C. at a scan rate of 10° C./minute in a Pyris I TGA, available from Perkin-Elmer of Shelton, Conn., under a nitrogen purge.

[3] = tested on: muscaranic receptors; conditions: in vitro; cited from earlier work
[4] = tested on: monoamine oxidase; conditions: cited from earlier work
[5] = tested on: adrenergic receptors; conditions: in vitro; cited from earlier work
[6] = tested on: histaminergic receptors; conditions: in vitro; cited from earlier work

## COc1ccc(C(CN(C)C)C2(O)CCCCC2)cc1 (stereo not drawn) [Form II, venlafaxine hydrochloride]
[1]
  intrinsic dissolution rate: 24.7 mg/cm^2-minute

## COc1ccc(C(CN(C)C)C2(O)CCCCC2)cc1 (stereo not drawn) [venlafaxine hydrochloride]
[2]
  weight loss on heating (TGA): lost little weight until it was heated near the melting point

## COc1ccc(C(CN(C)C)C2(O)CCCCC2)cc1 (stereo not drawn) [venlafaxine, 1-[2-(dimethylamino)-1-(4-methoxyphenyl)ethyl]cyclohexanol]
[3]
  affinity for muscaranic receptors: virtually no affinity
[4]
  inhibitory activity on monoamine oxidase: no inhibitory activity
[5]
  affinity for adrenergic receptors: virtually no affinity
[6]
  affinity for histaminergic receptors: virtually no affinity
